For assay [1], the target named is AEA-DA lipid probe targets in Neuro2a cells (Mus musculus, UniProt Q91XC9).
Assay [2] addresses T1, AEA-DA lipid probe targets in Neuro2a cells (Mus musculus, UniProt Q5XKN4).
T1 sequence (Q5XKN4 1-183): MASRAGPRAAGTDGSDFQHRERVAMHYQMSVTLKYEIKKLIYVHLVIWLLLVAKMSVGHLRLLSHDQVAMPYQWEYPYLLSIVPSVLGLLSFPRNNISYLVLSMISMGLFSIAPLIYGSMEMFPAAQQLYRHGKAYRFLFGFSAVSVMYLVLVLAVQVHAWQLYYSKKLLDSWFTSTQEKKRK

Assay [3] concerns the target AEA-DA lipid probe targets in Neuro2a cells (Mus musculus, UniProt P52293).
Assay [4] concerns the target T2, AEA-DA lipid probe targets in Neuro2a cells (Mus musculus, UniProt Q60692).
T2 sequence (Q60692 1-238): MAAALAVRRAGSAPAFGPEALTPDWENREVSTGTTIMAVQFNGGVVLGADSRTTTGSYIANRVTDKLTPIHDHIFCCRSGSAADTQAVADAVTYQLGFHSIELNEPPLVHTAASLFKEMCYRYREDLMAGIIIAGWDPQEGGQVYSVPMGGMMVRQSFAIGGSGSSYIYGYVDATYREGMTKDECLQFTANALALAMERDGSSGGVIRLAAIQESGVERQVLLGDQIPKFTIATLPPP

In assay [5] the target is T3, AEA-DA lipid probe targets in Neuro2a cells (Mus musculus, UniProt Q8BJ03).
T3 sequence (Q8BJ03 1-413): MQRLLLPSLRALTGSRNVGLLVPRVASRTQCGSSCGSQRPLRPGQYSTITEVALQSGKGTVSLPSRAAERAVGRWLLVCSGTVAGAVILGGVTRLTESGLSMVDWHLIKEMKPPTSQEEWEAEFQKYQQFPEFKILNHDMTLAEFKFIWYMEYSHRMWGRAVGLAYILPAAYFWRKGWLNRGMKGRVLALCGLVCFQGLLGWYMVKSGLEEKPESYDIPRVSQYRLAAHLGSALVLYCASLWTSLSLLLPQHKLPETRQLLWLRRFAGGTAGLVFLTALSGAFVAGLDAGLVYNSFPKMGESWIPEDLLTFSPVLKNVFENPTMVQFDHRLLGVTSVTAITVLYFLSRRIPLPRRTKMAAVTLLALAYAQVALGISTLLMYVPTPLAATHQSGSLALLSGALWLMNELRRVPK
To be noted: protein Cox15, Neuro2a cells.

The target of assay [6] is T4, AEA-DA lipid probe targets in Neuro2a cells (Mus musculus, UniProt P97311).
T4 sequence (P97311 1-821): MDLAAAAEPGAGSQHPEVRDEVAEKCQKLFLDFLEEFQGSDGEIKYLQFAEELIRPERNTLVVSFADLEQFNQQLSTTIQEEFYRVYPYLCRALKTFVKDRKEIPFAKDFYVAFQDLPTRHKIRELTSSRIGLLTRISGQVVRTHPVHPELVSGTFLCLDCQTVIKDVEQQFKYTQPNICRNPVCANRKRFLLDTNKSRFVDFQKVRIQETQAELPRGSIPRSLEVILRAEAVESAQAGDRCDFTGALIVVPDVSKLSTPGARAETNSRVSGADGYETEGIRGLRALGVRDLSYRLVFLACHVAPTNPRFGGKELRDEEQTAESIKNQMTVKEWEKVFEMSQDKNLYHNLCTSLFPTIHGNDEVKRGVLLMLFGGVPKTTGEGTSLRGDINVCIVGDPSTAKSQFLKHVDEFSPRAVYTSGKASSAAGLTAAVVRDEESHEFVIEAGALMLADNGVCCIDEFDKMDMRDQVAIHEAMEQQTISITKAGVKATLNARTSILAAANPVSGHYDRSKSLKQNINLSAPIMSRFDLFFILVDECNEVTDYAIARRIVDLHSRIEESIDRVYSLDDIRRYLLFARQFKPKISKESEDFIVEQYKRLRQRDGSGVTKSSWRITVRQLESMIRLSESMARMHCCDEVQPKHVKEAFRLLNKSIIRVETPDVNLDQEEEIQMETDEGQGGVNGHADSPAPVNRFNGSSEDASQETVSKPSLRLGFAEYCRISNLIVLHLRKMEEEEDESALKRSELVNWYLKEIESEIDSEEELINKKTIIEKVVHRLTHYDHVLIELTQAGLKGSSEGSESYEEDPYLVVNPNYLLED

In assay [7] the target is T5, AEA-DA lipid probe targets in Neuro2a cells (Mus musculus, UniProt Q61263).
T5 sequence (Q61263 1-540): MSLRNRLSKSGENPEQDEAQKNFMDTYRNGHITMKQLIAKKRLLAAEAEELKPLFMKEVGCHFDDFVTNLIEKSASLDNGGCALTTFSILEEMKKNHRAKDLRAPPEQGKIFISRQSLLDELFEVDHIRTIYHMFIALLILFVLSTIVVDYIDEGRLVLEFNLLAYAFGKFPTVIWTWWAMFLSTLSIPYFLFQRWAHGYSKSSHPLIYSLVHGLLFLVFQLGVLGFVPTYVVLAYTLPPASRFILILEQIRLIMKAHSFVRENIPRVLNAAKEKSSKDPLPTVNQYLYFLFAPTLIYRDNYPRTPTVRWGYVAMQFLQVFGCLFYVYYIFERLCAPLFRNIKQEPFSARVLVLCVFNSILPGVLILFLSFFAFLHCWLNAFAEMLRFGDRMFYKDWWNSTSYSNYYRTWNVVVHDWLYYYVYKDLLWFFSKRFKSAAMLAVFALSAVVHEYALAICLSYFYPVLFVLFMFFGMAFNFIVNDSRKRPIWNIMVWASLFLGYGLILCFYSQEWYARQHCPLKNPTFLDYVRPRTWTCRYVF

Where two headings read alike, the source gives them in different places.

AEA-DA lipid probe targets in Neuro2a cells (Mus musculus, UniProt Q91XC9), sequence (Q91XC9 whole entry): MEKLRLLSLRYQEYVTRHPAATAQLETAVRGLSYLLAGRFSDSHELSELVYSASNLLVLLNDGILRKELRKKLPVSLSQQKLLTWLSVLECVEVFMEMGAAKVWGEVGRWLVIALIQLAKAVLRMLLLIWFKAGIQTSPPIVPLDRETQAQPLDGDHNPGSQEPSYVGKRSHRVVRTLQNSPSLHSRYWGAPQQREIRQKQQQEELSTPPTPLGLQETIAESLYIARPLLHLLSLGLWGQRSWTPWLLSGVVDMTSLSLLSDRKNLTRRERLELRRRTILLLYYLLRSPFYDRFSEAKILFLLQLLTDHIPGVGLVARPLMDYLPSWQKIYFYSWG

As for `CCCCC/C=C\C/C=C\C/C=C\C/C=C\CCCC(=O)NCCO` [AEA, anandamide, reference compound], the “SILAC ratio, Pex16” value in assay [1] (competitor 200 μM) came to 1.7. The “SILAC ratio, Jagn1” value in assay [2] (competitor 200 μM) came out at 2.1. Further, in assay [3] (competitor 200 μM), the “SILAC ratio Kpna2” value is 1.5. In addition, the “SILAC ratio Psmb6” value in assay [4] (competitor 200 μM) turned out to be 1.4. Moreover, the “SILAC ratio (AEA-DA competition)” value in assay [5] (competitor 200 μM) came out at 1.0. Moreover, the “SILAC ratio Mcm6” value in assay [6] (competitor 200 μM) amounted to 1.3.

Regarding `O=C(/C=C/c1cccnc1)NCCCCC1CCN(C(=O)c2ccccc2)CC1` [FK-866, reference compound], in assay [1] (competitor 25 μM), the “SILAC ratio, Pex16” value was found to be 1.1. Moreover, the “SILAC ratio, Jagn1” value in assay [2] (competitor 25 μM) is recorded as 1.1. The “SILAC ratio Kpna2” value in assay [3] (competitor 25 μM) worked out at 1.2. Besides, in assay [4] (competitor 25 μM), the “SILAC ratio Psmb6” value came out at 1.4. The “SILAC ratio (AEA-DA competition)” value in assay [5] (competitor 25 μM) came out at 0.9. Moreover, the “SILAC ratio Mcm6” value in assay [6] (competitor 25 μM) is reported as 1.1. The “SILAC ratio, Soat1” value in assay [7] (competitor 25 μM) was 2.3.

In the case of `CN1CCN(C(=O)c2c(-c3ccccc3)c3cc([N+](=O)[O-])ccc3n2C)CC1` [KML110, (1-Methyl-5-nitro-3-phenyl-1H-indol-2-yl)(4-methylpiperazin-1-yl)methanone], the “SILAC ratio, Pex16” value in assay [1] (competitor 25 μM) was determined as 1.4. The “SILAC ratio, Jagn1” value in assay [2] (competitor 25 μM) is given as 1.5. The “SILAC ratio Kpna2” value in assay [3] (competitor 25 μM) turned out to be 1.2. Also, the “SILAC ratio Psmb6” value in assay [4] (competitor 25 μM) came out at 1.9. Also, the “SILAC ratio (AEA-DA competition)” value in assay [5] (competitor 25 μM) turned out to be 1.1. In assay [6] (competitor 25 μM), the “SILAC ratio Mcm6” value was 2.0.

On to `CN1CCN(C(=O)c2[nH]c3ccc([N+](=O)[O-])cc3c2-c2ccccc2)CC1` [MJN228, (4-Methylpiperazin-1-yl)(5-nitro-3-phenyl-1H-indol-2-yl)methanone], for which the “SILAC ratio, Pex16” value in assay [1] (competitor 10 μM) is reported as 0.9; in assay [1] (competitor 25 μM), 1.5; in assay [1] (competitor 50 μM) it was 2.3; in assay [1] (competitor 100 μM), 2.2. The “SILAC ratio, Jagn1” value in assay [2] (competitor 10 μM) amounted to 1.2; in assay [2] (competitor 25 μM), 1.4; in assay [2] (competitor 50 μM), 1.6; in assay [2] (competitor 100 μM), 2.1. In addition, the “SILAC ratio Kpna2” value in assay [3] (competitor 10 μM) was 1.3; in assay [3] (competitor 25 μM), 1.2; in assay [3] (competitor 50 μM), 0.9; in assay [3] (competitor 100 μM), 1.3. The “SILAC ratio Psmb6” value in assay [4] (competitor 10 μM) is 1.3; in assay [4] (competitor 25 μM), 1.5; in assay [4] (competitor 50 μM) it was 1.4; in assay [4] (competitor 100 μM), 2.5. Also, the “SILAC ratio (AEA-DA competition)” value in assay [5] (competitor 10 μM) amounted to 0.8; in assay [5] (competitor 25 μM), 1.0; in assay [5] (competitor 50 μM), 0.7; in assay [5] (competitor 100 μM), 0.6. In addition, the “SILAC ratio Mcm6” value stood at 1.2 in assay [6] (competitor 10 μM), 1.4 in assay [6] (competitor 25 μM), 1.0 in assay [6] (competitor 50 μM) and 1.6 in assay [6] (competitor 100 μM). Moreover, the “SILAC ratio, Soat1” value in assay [7] (competitor 10 μM) came out at 1.2; in assay [7] (competitor 25 μM), 2.6.

As to `C=CCN(C)CCCCCCOc1ccc(C(=O)c2ccc(Br)cc2)c(F)c1` [Ro 48-8071, reference compound], in assay [1] (competitor 25 μM), the “SILAC ratio, Pex16” value worked out at 1.3. In addition, in assay [2] (competitor 25 μM), the “SILAC ratio, Jagn1” value stood at 1.0. For the same molecule, the “SILAC ratio Kpna2” value in assay [3] (competitor 25 μM) was determined as 0.9. The “SILAC ratio Psmb6” value in assay [4] (competitor 25 μM) worked out at 1.0. In assay [5] (competitor 25 μM), the “SILAC ratio (AEA-DA competition)” value is on record as 0.8. For the same molecule, the “SILAC ratio Mcm6” value in assay [6] (competitor 25 μM) was 0.8. In addition, the “SILAC ratio, Soat1” value in assay [7] (competitor 25 μM) was found to be 1.8.

Values taken from patent US10168342B2, “Lipid probes and uses thereof” (THE SCRIPPS RESEARCH INSTITUTE, priority 2015, dated 2019).
